Source: patent US20250325542A1, “INHIBITORS OF ANTIMOCROBIAL RESISTANCE AND METHOS USING SAME” (Baylor College of Medicine, priority 2022, published 2025)

biological target: OXA-48 (Klebsiella pneumoniae, UniProt Q6XEC0); experiment: biochemical; assay type: biochemical; settings: not given
Sequence (Q6XEC0 whole entry, looked up, species assumed): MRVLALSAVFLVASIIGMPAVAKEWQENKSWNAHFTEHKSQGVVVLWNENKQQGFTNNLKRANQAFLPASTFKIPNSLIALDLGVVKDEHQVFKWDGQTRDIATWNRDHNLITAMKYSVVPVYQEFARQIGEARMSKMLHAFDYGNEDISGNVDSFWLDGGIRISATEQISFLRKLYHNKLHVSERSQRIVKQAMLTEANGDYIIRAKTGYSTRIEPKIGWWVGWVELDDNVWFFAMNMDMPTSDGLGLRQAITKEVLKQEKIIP

Row | SMILES | Ki
1 | COc1cc(-c2cc(O)cc(C(=O)O)c2)ccc1C(=O)O [CDD-2724, 5-hydroxy-3′-methoxy-[1,1′-biphenyl]-3,4′-dicarboxylic acid] | 0.63 ± 0.13 µM
2 | CNC(=O)CCc1ccc(CNc2cccc(CCCNCc3ccccc3-c3cccc(C(=O)O)c3)c2)cc1 [CDD-2819, 2′-(((3-(3-((4-(3-(methylamino)-3-oxopropyl)benzyl)amino)phenyl)propyl)amino)methyl)-[1,1′-biphenyl]-3-carboxylic acid] | 88 ± 4.4 µM

same assay, conditions: nitrocefin 30 μM, OXA-48 0.1 nM; read-out: OXA-48 Ki

Row | SMILES | Ki
3 | Nc1cccc(CCCNCc2ccccc2-c2cccc(C(=O)O)c2)c1 [CDD-2820, 2′-(((3-(3-aminophenyl)propyl)amino)methyl)-[1,1′-biphenyl]-3-carboxylic acid] | 127 ± 86 µM
4 | CN(C)C(=O)C1CCN(c2ccc(CNCc3ccccc3-c3cccc(C(=O)O)c3)cc2C#N)CC1 [CDD-2836, 2′-(((3-cyano-4-(4-(dimethylcarbamoyl)piperidin-1-yl)benzyl)amino)methyl)-[1,1′-biphenyl]-3-carboxylic acid] | 7.6 ± 1 µM

same assay, conditions: relative to the related analogue named in the sentence

Row | SMILES | fold decrease in Ki / enhancement of potency against OXA-48
5 | COc1cc(-c2cc(O)cc(C(=O)O)c2)ccc1C(=O)O [CDD-2724, 5-hydroxy-3′-methoxy-[1,1′-biphenyl]-3,4′-dicarboxylic acid] | 2 fold

biological target: KPC-2 (Klebsiella pneumoniae, UniProt Q9F663); experiment: KPC-2 enzyme inhibition (Ki); assay type: biochemical; settings: not given
Excerpt: Several hits were identified from the qDOS38_1 library against the KPC-2 enzyme. All compounds were synthesized without linker C1a. Among the hit compounds, CDD-2312 had the highest enrichment score of 5.9 but a lower count number of 115 compared to other libraries screened at the same time.

KPC-2, sequence (Q9F663 whole entry, looked up, species assumed): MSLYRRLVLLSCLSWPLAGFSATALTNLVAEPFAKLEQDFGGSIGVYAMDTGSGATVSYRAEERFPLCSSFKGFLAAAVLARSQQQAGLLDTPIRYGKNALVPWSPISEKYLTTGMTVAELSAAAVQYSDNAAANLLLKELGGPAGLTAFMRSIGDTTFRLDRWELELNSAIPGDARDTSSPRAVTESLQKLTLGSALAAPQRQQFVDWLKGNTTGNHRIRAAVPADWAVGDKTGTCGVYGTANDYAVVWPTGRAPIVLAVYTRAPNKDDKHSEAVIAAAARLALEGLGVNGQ

Row | SMILES | Ki
6 | CNC(=O)c1cncc(-c2cnc(NCC(=O)O)nc2)c1 [CDD-2308, (5-(5-(methylcarbamoyl)pyridin-3-yl)pyrimidin-2-yl)glycine] | 3580 ± 1150 µM
7 | CNC(=O)c1ccc(-c2cnc(NCC(=O)O)nc2)cc1F [CDD-2309, (5-(3-fluoro-4-(methylcarbamoyl)phenyl)pyrimidin-2-yl)glycine] | 980 ± 180 µM
8 | CNC(=O)c1cc2cc(-c3cnc(NCC(=O)O)nc3)ccc2nc1C [CDD-2310, (5-(2-methyl-3-(methylcarbamoyl)quinolin-6-yl)pyrimidin-2-yl)glycine] | 1240 ± 532 µM
9 | COc1cc(-c2cnc(NCC(=O)O)nc2)cc(C=O)c1OCC(=O)O [CDD-2311, (5-(4-(carboxymethoxy)-3-formyl-5-methoxyphenyl)pyrimidin-2-yl)glycine] | 522 ± 113 µM

biological target: NDM-1 (Klebsiella pneumoniae, UniProt C7C422); experiment: not given; assay type: biochemical; settings: not given
Sequence (C7C422 whole entry, looked up, species assumed): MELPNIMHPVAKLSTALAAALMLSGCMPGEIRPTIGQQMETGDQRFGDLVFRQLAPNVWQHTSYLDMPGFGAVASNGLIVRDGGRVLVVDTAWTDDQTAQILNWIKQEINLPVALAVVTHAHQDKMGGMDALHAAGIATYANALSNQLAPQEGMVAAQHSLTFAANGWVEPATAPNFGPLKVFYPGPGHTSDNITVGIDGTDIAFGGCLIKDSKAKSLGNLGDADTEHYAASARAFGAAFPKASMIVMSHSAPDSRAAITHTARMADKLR

Row | SMILES | fold reduction of potency against NDM-1 | Ki | NDM-1 Ki (μM) | fold improvement in potency against NDM-1
10 | CNC(=O)CCc1ccc(CNCc2cccc(NCc3ccc(-c4ccc(C(=O)O)c(O)c4)o3)c2)cc1 [CDD-2335, 2-hydroxy-4-(5-(((3-(((4-(3-(methylamino)-3-oxopropyl)benzyl)amino)methyl)phenyl)amino)methyl)furan-2-yl)benzoic acid] | 4 fold |  |  | 
11 | CNCc1ccc(-c2ccc(C(=O)O)c(O)c2)o1 [CDD-2363, 2-hydroxy-4-(5-((methylamino)methyl)furan-2-yl)benzoic acid] |  | 397 ± 113 µM | weak potency | 
12 | CNCc1cccc(NCc2ccc(-c3ccc(C(=O)O)cc3)o2)c1 [CDD-2463, 4-(5-(((3-((methylamino)methyl)phenyl)amino)methyl)furan-2-yl)benzoic acid] | 2.5 fold | 8.5 µM |  | 
13 | NCc1cccc(NCc2ccc(-c3ccc(C(=O)O)c(O)c3)s2)c1 [CDD-2600, 4-(5-(((3-(aminomethyl)phenyl)amino)methyl)thiophen-2-yl)-2-hydroxybenzoic acid] |  | 1.6 ± 0.3 µM |  | 2 fold
14 | NCc1cccc(NCc2cc(C(=O)O)cc(-c3ccc(C(=O)O)c(O)c3)c2)c1 [CDD-2897, 5-(((3-(aminomethyl)phenyl)amino)methyl)-3′-hydroxy-[1,1′-biphenyl]-3,4′-dicarboxylic acid] | more than 10 fold | 71 ± 37 µM |  | 
15 | Cc1cccc(NCc2cccc(-c3ccc(C(=O)O)c(O)c3)c2)c1 [CDD-2907, 3-hydroxy-3′-((m-tolylamino)methyl)-[1,1′-biphenyl]-4-carboxylic acid] |  | > 100 µM | near-complete loss of potency | 
16 | CC(=O)NCc1cccc(NCc2cccc(-c3ccc(C(=O)O)c(O)c3)c2)c1 [CDD-2919, 3′-(((3-(acetamidomethyl)phenyl)amino)methyl)-3-hydroxy-[1,1′-biphenyl]-4-carboxylic acid] |  | > 100 µM | near-complete loss of potency | 
17 | NCc1cccc(NC(=O)c2cccc(-c3ccc(C(=O)O)c(O)c3)c2)c1 [CDD-2985, 3′-((3-(aminomethyl)phenyl)carbamoyl)-3-hydroxy-[1,1′-biphenyl]-4-carboxylic acid] |  | 29 ± 15 µM |  | 
18 | NCc1cccc(NCc2cncc(-c3ccc(C(=O)O)c(O)c3)c2)c1 [CDD-2998, 4-(5-(((3-(aminomethyl)phenyl)amino)methyl)pyridin-3-yl)-2-hydroxybenzoic acid] |  | 1.9 ± 0.6 µM |  | 
19 | NCc1cccc(N2Cc3ccc(-c4ccc(C(=O)O)c(O)c4)cc3C2)c1 [CDD-3080, 4-(2-(3-(aminomethyl)phenyl)isoindolin-5-yl)-2-hydroxybenzoic acid] |  | 43 ± 24 µM |  | 

same assay, conditions: imipenem 40 μM, NDM-1 2 nM, 10 μM ZnSO4

Row | SMILES | Ki
20 | CNC(=O)CCc1ccc(CNCc2cccc(NCc3ccc(-c4ccc(C(=O)O)c(O)c4)o3)c2)cc1 [CDD-2335, 2-hydroxy-4-(5-(((3-(((4-(3-(methylamino)-3-oxopropyl)benzyl)amino)methyl)phenyl)amino)methyl)furan-2-yl)benzoic acid] | 13 ± 1.5 µM
21 | CNC(=O)CCc1ccc(CNCc2cccc(NCc3ccc(-c4ccccc4CC(=O)O)cc3)c2)cc1 [CDD-2336, 2-(4′-(((3-(((4-(3-(methylamino)-3-oxopropyl)benzyl)amino)methyl)phenyl)amino)methyl)-[1,1′-biphenyl]-2-yl)acetic acid] | 144 ± 16 µM
22 | CNC(=O)CCC1CCN(C(=O)c2ccc(CNCc3ccc(O)c(C(=O)O)c3)s2)CC1 [CDD-2371, 2-hydroxy-5-((((5-(4-(3-(methylamino)-3-oxopropyl)piperidine-1-carbonyl)thiophen-2-yl)methyl)amino)methyl)benzoic acid] | 217 ± 46 µM
23 | CNC(=O)C1CCC(C(=O)NCc2ccc(NCc3ccc(O)c(C(=O)O)c3)nc2)CC1 (stereo not drawn) [CDD-2395, 2-hydroxy-5-(((5-((4-(methylcarbamoyl)cyclohexane-1-carboxamido)methyl)pyridin-2-yl)amino)methyl)benzoic acid] | 153 ± 28 µM
24 | CNCc1cccc(NCc2ccc(-c3ccc(O)c(C(=O)O)c3)o2)c1 [CDD-2510, 2-hydroxy-5-(5-(((3-((methylamino)methyl)phenyl)amino)methyl)furan-2-yl)benzoic acid] | 60 ± 10 µM
25 | NCc1cccc(NCc2ccc(-c3cccc(C(=O)O)c3O)o2)c1 [CDD-2567, 3-(5-(((3-(aminomethyl)phenyl)amino)methyl)furan-2-yl)-2-hydroxybenzoic acid] | 24 ± 1.5 µM
26 | CNCc1cccc(NCc2ccc(-c3cccc(C(=O)O)c3)o2)c1 [CDD-2602, 3-(5-(((3-((methylamino)methyl)phenyl)amino)methyl)furan-2-yl)benzoic acid] | 46 ± 11 µM
27 | NCc1cccc(NCc2ccc(-c3ccc(C(=O)O)c(O)c3)cc2)c1 [CDD-2615, 4′-(((3-(aminomethyl)phenyl)amino)methyl)-3-hydroxy-[1,1′-biphenyl]-4-carboxylic acid] | 14 ± 1.1 µM
28 | CNCc1cccc(NCc2cccc(-c3ccc(C(=O)O)c(O)c3)c2)c1 [CDD-2906, 3-hydroxy-3′-(((3-((methylamino)methyl)phenyl)amino)methyl)-[1,1′-biphenyl]-4-carboxylic acid] | 11 ± 2 µM
29 | CNC(=O)Cc1cccc(NCc2cccc(-c3ccc(C(=O)O)c(O)c3)c2)c1 [CDD-2920, 3-hydroxy-3′-(((3-(2-(methylamino)-2-oxoethyl)phenyl)amino)methyl)-[1,1′-biphenyl]-4-carboxylic acid] | 87 ± 53 µM
30 | NCc1cc(O)cc(NCc2cccc(-c3ccc(C(=O)O)c(O)c3)c2)c1 [CDD-2974, 3′-(((3-(aminomethyl)-5-hydroxyphenyl)amino)methyl)-3-hydroxy-[1,1′-biphenyl]-4-carboxylic acid] | 3.5 ± 1.4 µM
31 | NCc1cncc(NCc2cccc(-c3ccc(C(=O)O)c(O)c3)c2)c1 [CDD-2975, 3′-(((5-(aminomethyl)pyridin-3-yl)amino)methyl)-3-hydroxy-[1,1′-biphenyl]-4-carboxylic acid] | 25 ± 14 µM
32 | NCc1cccc(NCc2cc(-c3ccc(C(=O)O)c(O)c3)ccn2)c1 [CDD-3059, 4-(2-(((3-(aminomethyl)phenyl)amino)methyl)pyridin-4-yl)-2-hydroxybenzoic acid] | 4.8 ± 0.4 µM
33 | NCc1cccc(NCc2ccnc(-c3ccc(C(=O)O)c(O)c3)c2)c1 [CDD-3060, 4-(4-(((3-(aminomethyl)phenyl)amino)methyl)pyridin-2-yl)-2-hydroxybenzoic acid] | 8.1 ± 2 µM

tested on: E. coli expressing NDM-1; experiment: not given; assay type: cell-based; settings: comparison of imipenem MIC shifts

Row | SMILES | synergy with imipenem
34 | CNCc1cccc(NCc2ccc(-c3cccc(C(=O)O)c3O)o2)c1 [CDD-2522, 2-hydroxy-3-(5-(((3-((methylamino)methyl)phenyl)amino)methyl)furan-2-yl)benzoic acid] | reduced synergy compared to CDD-2376 and CDD-2511
35 | NCc1cccc(NC(=O)c2cccc(-c3ccc(C(=O)O)c(O)c3)c2)c1 [CDD-2985, 3′-((3-(aminomethyl)phenyl)carbamoyl)-3-hydroxy-[1,1′-biphenyl]-4-carboxylic acid] | reduced synergy compared to CDD-2376 and CDD-2511
36 | NCc1cccc(N2Cc3ccc(-c4ccc(C(=O)O)c(O)c4)cc3C2)c1 [CDD-3080, 4-(2-(3-(aminomethyl)phenyl)isoindolin-5-yl)-2-hydroxybenzoic acid] | reduced synergy compared to CDD-2376 and CDD-2511
